Data reported in paper PMC7365090, “In crystallo-screening for discovery of human norovirus 3C-like protease inhibitors” (Journal of Structural Biology: X, 2020).
Like-named read-outs stand apart in the source and are kept apart here.

Target: T1, SV3CP (Southampton norovirus 3CL^pro) (Southampton virus (serotype 3), UniProt Q04544)
T1 construct: gene ORF1; mature 3C-like protease (NS6) cut from the ORF1 non-structural polyprotein; purified as in Hussey et al. 2011; mass 19,290 Da (intact); dimer in asymmetric unit, putative crystallographic tetramer
T1 sequence (Q04544 1100-1280): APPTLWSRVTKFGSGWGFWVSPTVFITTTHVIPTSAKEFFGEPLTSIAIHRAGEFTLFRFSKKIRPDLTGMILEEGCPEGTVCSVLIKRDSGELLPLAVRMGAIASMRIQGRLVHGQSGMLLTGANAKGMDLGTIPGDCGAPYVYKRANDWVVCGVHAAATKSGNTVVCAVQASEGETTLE
Assay: chromogenic protease assay, […] nm
Assay type: biochemical

Compound	Ki	Ki (read-out: Ki)
O=C(O)c1csc(-c2ccc(C(F)(F)F)cc2)n1 [J02]	340 µM	–
Cc1ccc(CNc2cccc(C(=O)O)c2)s1 [J01]	–	370 µM
